The values below come from patent publication US20230295140A1, “INHIBITORS OF VAP-1” (Acucela Inc., priority 2021, published 2023).

Holding throughout (assay type): biochemical
Assay [1] deals with rhVAP-1 (Homo sapiens (Human), UniProt Q16853). The assay is described as follows: VAP-1 fluorometric assay (Amplex Red/HRP, benzylamine substrate). The note with it: class symbols, ranges defined in μM. The procedure: The capability of compounds described herein to inhibit the enzymatic activity of vascular adhesion protein-1 (VAP-1) was determined by fluorometric assay. The assay procedure provided by R&D Systems was modified slightly for use as an inhibitor screening assay. The assay measured the H2O2 generated from the oxidative deamination of benzylamine by rhVAP-1 by converting Amplex® Red to the fluorescent product, resorufin, via horseradish peroxidase (HRP) and H2O2. Reaction buffer was 10 mM NaHCO3, pH 7.4. A standard curve was prepared by serially diluting H2O2 in reaction buffer. A 10 μM solution of resorufin was prepared in reaction buffer and was dispensed to 2 wells. These wells served as positive control for maximum fluorescence. Reaction buffer was added to the individual wells so that the final volume in each well was 100 μL. Amplex Red was diluted to 1 mM in reaction buffer. A 10 U stock of HRP was prepared in reaction buffer. A reaction cocktail was prepared by mixing equal parts 1 mM Amplex Red with 10 U HRP with 3 parts reaction buffers. The reaction cocktail was added to the appropriate wells, so that that final concentration in the well was 0.05 mM Amplex Red and 0.5 U HRP. A 200 μM solution of benzylamine was prepared in reaction buffer. Benzylamine was added to the appropriate wells so that the final concentration was 50 μM. Inhibitors were diluted in DMSO to 20× and distributed to the appropriate wells. LJP-1207 served a positive control. rhVAP-1 was purchased from R&D Systems. The concentration used for each lot was determined so that the activity was equal to the first lot. Two wells were left blank as controls. The plate was incubated for 30 minutes at 37° C., protected from light under foil. The plate was read at 530/35 emission and 590/35 excitation. Data processing was performed using Excel and Prism software.
The capability of compounds described herein to inhibit the enzymatic activity of vascular adhesion protein-1 (VAP-1) was determined by fluorometric assay. The assay procedure provided by R&D Systems was modified slightly for use as an inhibitor screening assay. The assay measured the H2O2 generated from the oxidative deamination of benzylamine by rhVAP-1 by converting Amplex® Red to the fluorescent product, resorufin, via horseradish peroxidase (HRP) and H2O2. Amplex Red, HRP, Benzylamine, inhibitors (with DMSO as vehicle, 0.5% v/v) and rhVAP-1 were added to the wells. Assay was conducted in 10 mM NaHCO3, pH 7.4. A standard curve was prepared by serially diluting H2O2 in reaction buffer. The plate was incubated for 30 minutes at 37° C., protected from light under foil. The plate was read at 530/35 emission and 590/35 excitation. Data processing was performed using Prism software.

Assay [2] concerns the target rhMAO-A (Homo sapiens (Human), UniProt P21397). As to the kind of experiment: MAO-Glo assay, MAO-A inhibition. The note with it: for IC50: class symbols, ranges defined in μM; for pIC50: bound printed in cell. On the procedure:
(§1) The capability of compounds described herein to inhibit MAO was determined using a modified Promega MAO-Glo™ assay kit. The substrate ((4S)-4,5-dihydro-2-(6-hydroxybenzothiazolyl)-4-thiazolecarboxylic acid) was converted by MAO to produce methyl ester luciferin. The luciferin was then converted by luciferase to produce oxyluciferin and light. The light was measured using a luminescence setting on the plate reader. A standard curve was prepared by serially diluting luciferin in reaction buffer. The standard kit reaction buffer was used—100 mM HEPES (pH 7.5), 5% glycerol. The substrate was dispensed into the wells so that the final concentration for MAO-A inhibition assay would be 10 μM and MAO-B inhibition assay would be […]. Inhibitors were diluted in DMSO to 4× and distributed to the appropriate wells. Clorgyline and Deprenyl served as positive controls. rhMAO-A and rhMAO-B were purchased from Sigma. MAO-A or MAO-B was added to the appropriate wells. The plate was incubated for 1 hour, at room temperature with gentle shaking (90 rpm). The detection agent was added at equal volume (48 μL detection agent to 48 μL reaction). The plate was incubated for 20 minutes, at room temperature with gentle shaking (90 rpm). The plate luminescence was read. Data processing was performed using Prism software.
(§2) The capability of compounds described herein to inhibit MAO was determined using a modified Promega MAO-Glo™ assay. Test compounds, substrate and enzyme were incubated per manufacturer instructions for 1 hour, at room temperature with gentle shaking (90 rpm) before addition of detection agent. The detection agent was added at equal volume (48 μL detection agent to 48 μL reaction). The plate was incubated for 20 minutes, at room temperature with gentle shaking (90 rpm). The plate luminescence was read. Data processing was performed using Prism software.

For assay [3], the target named is rhMAO-B (Homo sapiens (Human), UniProt P27338). As to the kind of experiment: MAO-Glo assay, MAO-B inhibition. The note with it: for IC50: class symbols, ranges defined in μM. On the procedure:
as §1, §2

pIC50: −log10 of the molar value. Counter-ions that a name gives are not always drawn.

Sequence of rhMAO-A (P21397 whole entry): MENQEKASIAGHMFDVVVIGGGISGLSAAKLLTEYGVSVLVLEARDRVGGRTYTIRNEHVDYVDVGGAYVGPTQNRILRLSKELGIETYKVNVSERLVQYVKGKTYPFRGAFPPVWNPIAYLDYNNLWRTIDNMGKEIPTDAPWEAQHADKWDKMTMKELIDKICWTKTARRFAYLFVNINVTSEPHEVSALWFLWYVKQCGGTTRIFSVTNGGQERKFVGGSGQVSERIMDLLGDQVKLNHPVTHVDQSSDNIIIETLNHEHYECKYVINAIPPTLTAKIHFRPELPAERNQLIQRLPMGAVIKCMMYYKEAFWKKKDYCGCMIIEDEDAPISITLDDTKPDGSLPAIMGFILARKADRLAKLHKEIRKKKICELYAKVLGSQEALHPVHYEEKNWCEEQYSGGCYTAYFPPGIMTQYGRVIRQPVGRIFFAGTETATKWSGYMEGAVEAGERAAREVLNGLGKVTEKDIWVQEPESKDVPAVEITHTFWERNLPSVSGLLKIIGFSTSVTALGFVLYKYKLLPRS
Sequence of rhMAO-B (P27338 whole entry): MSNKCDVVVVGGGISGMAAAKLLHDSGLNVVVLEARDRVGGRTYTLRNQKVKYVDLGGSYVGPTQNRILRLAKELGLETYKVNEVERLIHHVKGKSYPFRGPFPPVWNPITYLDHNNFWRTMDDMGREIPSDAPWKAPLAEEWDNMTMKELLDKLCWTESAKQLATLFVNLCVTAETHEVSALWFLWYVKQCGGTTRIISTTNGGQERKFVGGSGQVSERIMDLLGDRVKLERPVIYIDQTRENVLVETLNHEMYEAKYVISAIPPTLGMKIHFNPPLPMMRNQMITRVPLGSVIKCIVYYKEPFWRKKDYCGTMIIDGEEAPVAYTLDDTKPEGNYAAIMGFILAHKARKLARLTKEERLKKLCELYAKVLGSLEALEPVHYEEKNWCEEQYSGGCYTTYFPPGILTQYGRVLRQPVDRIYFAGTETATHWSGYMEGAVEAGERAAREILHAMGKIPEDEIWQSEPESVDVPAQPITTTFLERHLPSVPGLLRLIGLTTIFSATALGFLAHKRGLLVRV
Sequence of rhVAP-1 (Q16853 whole entry): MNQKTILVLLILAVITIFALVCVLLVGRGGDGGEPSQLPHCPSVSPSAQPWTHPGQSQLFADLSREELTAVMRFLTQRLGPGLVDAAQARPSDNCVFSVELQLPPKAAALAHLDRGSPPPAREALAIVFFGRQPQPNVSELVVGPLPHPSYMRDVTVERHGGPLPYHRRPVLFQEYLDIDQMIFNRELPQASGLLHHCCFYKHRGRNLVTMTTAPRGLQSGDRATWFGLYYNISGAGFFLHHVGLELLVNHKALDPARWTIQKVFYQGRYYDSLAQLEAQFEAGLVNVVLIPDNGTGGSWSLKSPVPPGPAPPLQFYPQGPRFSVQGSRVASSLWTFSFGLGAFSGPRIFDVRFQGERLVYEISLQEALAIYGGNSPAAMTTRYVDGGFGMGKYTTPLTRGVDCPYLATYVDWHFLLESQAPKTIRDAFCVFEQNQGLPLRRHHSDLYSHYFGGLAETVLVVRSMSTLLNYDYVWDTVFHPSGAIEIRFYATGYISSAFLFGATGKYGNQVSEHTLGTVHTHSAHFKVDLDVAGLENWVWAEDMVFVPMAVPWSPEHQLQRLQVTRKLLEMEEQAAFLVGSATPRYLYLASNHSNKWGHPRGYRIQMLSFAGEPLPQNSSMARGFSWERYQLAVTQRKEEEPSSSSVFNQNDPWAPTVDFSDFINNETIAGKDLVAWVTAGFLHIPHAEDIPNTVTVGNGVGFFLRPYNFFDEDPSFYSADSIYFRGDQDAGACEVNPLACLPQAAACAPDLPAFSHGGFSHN

Turning to `CCCCc1nc2ccc(OC/C(=C/F)CN)c(C)c2o1` [Example 10, (E)-2-(((2-butyl-7-methylbenzo[d]oxazol-6-yl)oxy)methyl)-3-fluoroprop-2-en-1-amine], the IC50 in assay [1] was 0.1 to 1 µM; in assay [2], 1 to 10 µM; in assay [3], under 0.1 µM.
Turning to `CCCCc1nc2cc(OC/C(=C/F)CN)ccc2n1C` [Example 11, (E)-2-(((2-butyl-1-methyl-1H-benzo[d]imidazol-5-yl)oxy)methyl)-3-fluoroprop-2-en-1-amine], the IC50 in assay [1] was under 0.1 µM. Besides, the pIC50 in assay [2] and in assay [3] (bound printed in cell) was under 4.30 throughout.
Consider `CCCNc1nc2ccc(OC/C(=C\F)CN)cc2s1` [Example 12, (Z)-6-((2-(aminomethyl)-3-fluoroallyl)oxy)-N-propylbenzo[d]thiazol-2-amine 4-methylbenzenesulfonate], for which the IC50 in assay [1] was under 0.1 µM; in assay [2], 1 to 10 µM; in assay [3], 1 to 10 µM.
In the case of `CCCCc1nc2ccc(OC/C(=C/F)CN)cc2[nH]1` [Example 13, (E)-2-(((2-butyl-1H-benzo[d]imidazol-6-yl)oxy)methyl)-3-fluoroprop-2-en-1-amine 4-methylbenzenesulfonate], the concentration for half-maximal inhibition (IC50) in assay [1] was under 0.1 µM; in assay [3], 1 to 10 µM. In assay [2], this molecule gave a pIC50 of under 4.30.
With `CCCNc1nc2ccc(OC/C(=C\F)CN)c(F)c2s1` [Example 14, (Z)-6-((2-(aminomethyl)-3-fluoroallyl)oxy)-7-fluoro-N-propylbenzo[d]thiazol-2-amine 4-methylbenzenesulfonate], the half-inhibitory concentration (IC50) was under 0.1 µM in assay [1], 1 to 10 µM in assay [2] and 1 to 10 µM in assay [3].
As to `CCCCc1nc2ccc(NC/C(=C/F)CN)cc2o1` [Example 17, (E)-N1-(2-butylbenzo[d]oxazol-6-yl)-2-(fluoromethylene)propane-1,3-diamine], the IC50 in assay [1] was under 0.1 µM; in assay [2], 10 to 30 µM; in assay [3], 0.1 to 1 µM.
The like results for `CCCCc1nc2ccc(CC(=CF)CN)cc2o1` [Example 18, 2-((2-butylbenzo[d]oxazol-6-yl)methyl)-3-fluoroprop-2-en-1-amine] were, in that order, under 0.1 µM, 1 to 10 µM and 0.1 to 1 µM.
The like results for `CCCCc1nc2ccc(OC/C(=C\F)CN)cc2o1` [Example 19, (Z)-2-(((2-butylbenzo[d]oxazol-6-yl)oxy)methyl)-3-fluoroprop-2-en-1-amine 4-methylbenzenesulfonate] were, in that order, under 0.1 µM, 1 to 10 µM and 0.1 to 1 µM.
The like results for `CCCCc1nc2ccc(N(C)C/C(=C/F)CN)cc2o1` [Example 20, (E)-N1-(2-butylbenzo[d]oxazol-6-yl)-2-(fluoromethylene)-N1-methylpropane-1,3-diamine] were, in that order, under 0.1 µM, 10 to 30 µM and 1 to 10 µM.
For `NC/C(=C\F)COc1ccc2nc(NCc3ccccc3)oc2c1` [Example 21, (E)-6-((2-(aminomethyl)-3-fluoroallyl)oxy)-N-benzylbenzo[d]oxazol-2-amine 4-methylbenzenesulfonate], the IC50 in assay [1] was under 0.1 µM; in assay [2], 10 to 30 µM; in assay [3] it was 0.1 to 1 µM.
The like results for `CCCCc1nc2ccc(SC/C(=C/F)CN)cc2o1` [Example 22, (E)-2-(((2-butylbenzo[d]oxazol-6-yl)thio)methyl)-3-fluoroprop-2-en-1-amine 4-methylbenzenesulfonate] were, in that order, under 0.1 µM, 10 to 30 µM and 0.1 to 1 µM.
The like results for `NC/C(=C\F)COc1ccc2nc(NCc3ccncc3)oc2c1` [Example 23, (E)-6-((2-(aminomethyl)-3-fluoroallyl)oxy)-N-(pyridin-4-ylmethyl)benzo[d]oxazol-2-amine 4-methylbenzenesulfonate] were, in that order, under 0.1 µM, 10 to 30 µM and 1 to 10 µM.
In the case of `COc1ccc(CNc2nc3ccc(OC/C(=C/F)CN)cc3o2)cc1` [Example 24, (E)-6-((2-(aminomethyl)-3-fluoroallyl)oxy)-N-(4-methoxybenzyl)benzo[d]oxazol-2-amine 4-methylbenzenesulfonate], the concentration for half-maximal inhibition (IC50) in assay [1] is under 0.1 µM; in assay [2], 10 to 30 µM. The same molecule showed a pIC50 in assay [3] (number printed in cell) of 6.20.
As for `COc1cccc(CNc2nc3ccc(OC/C(=C/F)CN)cc3o2)c1` [Example 25, (E)-6-((2-(aminomethyl)-3-fluoroallyl)oxy)-N-(3-methoxybenzyl)benzo[d]oxazol-2-amine 4-methylbenzenesulfonate], the IC50 in assay [1] is under 0.1 µM; in assay [2], 1 to 10 µM; in assay [3] it was 0.1 to 1 µM.
The like results for `NC/C(=C\F)COc1ccc2nc(NCc3cccnc3)oc2c1` [Example 26, (E)-6-((2-(aminomethyl)-3-fluoroallyl)oxy)-N-(pyridin-3-ylmethyl)benzo[d]oxazol-2-amine 4-methylbenzenesulfonate] were, in that order, under 0.1 µM, 10 to 30 µM and 1 to 10 µM.
The like results for `CCCCc1nc2ccc(C(=CF)CN)cc2o1` [Example 27, 2-(2-butylbenzo[d]oxazol-6-yl)-3-fluoroprop-2-en-1-amine 4-methylbenzenesulfonate] were, in that order, under 0.1 µM, 1 to 10 µM and 10 to 30 µM.
The like results for `CCCCc1nc2ccc(COC/C(=C/F)CN)cc2o1` [Example 28, (E)-2-(((2-butylbenzo[d]oxazol-6-yl)methoxy)methyl)-3-fluoroprop-2-en-1-amine] were, in that order, under 0.1 µM, 10 to 30 µM and under 0.1 µM.
For `CCCCc1nc2ccc(C/C(=C/F)CN)cc2o1` [Example 31, (Z)-2-((2-butylbenzo[d]oxazol-6-yl)methyl)-3-fluoroprop-2-en-1-amine], the IC50 was under 0.1 µM in assay [1], 10 to 30 µM in assay [2] and 1 to 10 µM in assay [3].
The like results for `CCCCc1nc2ccc(OCC(CN)=C(F)F)cc2o1` [Example 32, 2-(((2-butylbenzo[d]oxazol-6-yl)oxy)methyl)-3,3-difluoroprop-2-en-1-amine hydrochloride] were, in that order, under 0.1 µM, 10 to 30 µM and 10 to 30 µM.
The like results for `CC1CN(c2nc3ccc(OC/C(=C/F)CN)cc3o2)C1` [Example 33, (E)-3-fluoro-2-(((2-(3-methylazetidin-1-yl)benzo[d]oxazol-6-yl)oxy)methyl)prop-2-en-1-amine 4-methylbenzenesulfonate] were, in that order, under 0.1 µM, 10 to 30 µM and 0.1 to 1 µM.
The like results for `NC/C(=C\F)COc1ccc2nc(C34CCC(CC3)CC4)oc2c1` [Example 34, (E)-2-(((2-(bicyclo[2.2.2]octan-1-yl)benzo[d]oxazol-6-yl)oxy)methyl)-3-fluoroprop-2-en-1-amine 4-methylbenzenesulfonate] were, in that order, under 0.1 µM, 10 to 30 µM and 0.1 to 1 µM.
For `NC/C(=C\F)COc1ccc2nc(CCCCc3ccccc3)oc2c1` [Example 35, 4-methylbenzenesulfonate], the IC50 was under 0.1 µM in assay [1], 10 to 30 µM in assay [2] and under 0.1 µM in assay [3].

A word on the IC50: it is the concentration needed to halve the response being measured. A higher IC50 goes with a need for much substance. As usually defined, the pIC50 is the IC50 on a negative log10 scale, so that one unit is a factor of ten. A high value points to a small IC50.
